Source: patent EP0091090A2, “Bipyridine substituted imidazolidene copper complex and its use in food-producing animals, and bipyridine, 2,2'-(2-imidazolidinylidene) di-copper complex and use in animals” (INTERNATIONAL MINERALS & CHEMICAL CORPORATION, priority 1982, dated 1983)
Several values for one entry are separate records, joined by “and”; a condition that tells them apart may be missing. Identical values can stand only once. Like-named read-outs stand apart in the source and are kept apart here.

Assays:
[1] = tested on: rumen fluid batch culture; assay: Batch rumen VFA and gas production screen (Example 8); format: cell-based, steers
Protocol: The above Formula II composition was tested to determine its effectiveness as a feed additive for ruminants. The initial tests were in rumen fluid batch culture systems to determine the effect of the compound on volatile fatty acid/methane ratios (VFA/CH4).
A 50/50.mixture of ground corn and ground alfalfa was used as the substrate for the subject rumen fluid batch culture test. The compound (Formula II) was present in the rumen fluid at 75 ppm.
On day 1, rumen fluid was obtained from mature fistulated steers on 50/50 concentrate/roughage diets. The rumen fluid (RF) was strained through three layers of gauze cloth and equilibrated with C02 gas. Wheaton serum vials (125 ml) were prepared ahead with 20 ml continuous batch buffer and 100 mg 50/50 ground corn/ground alfalfa. Controls and compounds (dissolved in acetone) were set up according to indicated levels. The vials were kept under C02 gas until 20 ml of the strained RF was added. The vials were sealed and incubated at 39°C for 24 hours in a hot water bath. On successive days, gas samples (0.1 ml) were drawn for gas chromatography analysis before transferring 20 ml of the batch culture to another vial containing 20 ml of buffer, 100 mg substrate, and the corresponding compound. The remaining 20 ml was inoculated with 2 ml 6N HCl and centrifuged at 15,000 rpm for 15 minutes. Ether extracts were prepared for volatile fatty acid (VFA) analysis. Some minor adjustments were made in the temperatures on the Hewlett-Packard 5750 Gas-Liquid Chromatograph used for VFA analysis when the glass column used was changed from 1/2 inch diameter to 1J8 inch diameter.
About 4 minutes was needed to record the sample.
In the above tests, four control groups were run and the mean established.

rumen microflora = assay: Batch culture assay for the degradation of starch (Example 3); format: cell-based, steers
Excerpt: The subject Formula ^IV compound was also compared to monensin in another rumen fluid batch culture test as set forth below. The test was designed to screen compounds for inhibition of starch breakdown by the rumen microflora. […] It is considered more desirable to avoid degradation of starch in the rumen so that it is passed on into the abomasum where it can be digested more efficiently. […] Test Procedure: Animals - Mature fistulated steers were maintained on concentrate, roughage, or concentrate/ roughage (50/50) rations. Animals were fed twice daily at 8:00 A.M. and 4:00 P.M.
Culture Assays - Approximately two liters of rumen fluid were collected from fistulated animals with the use of a hand pump. The rumen fluid, collected in a stoppered flask, was then immediately taken to the laboratory for processing. Samples were taken at 8:00 A.M. just prior to the first feeding or at 1:00 P.M. (ca. 4-5 hours after the first feeding). Rumen fluid was strained through six layers of cotton gauze cloth into a flask that was flushed with C02 gas. The filtrate was centrifuged for 5 minutes at 100 rpm in a Sorvall centrifuge to remove large particulate material. The supernatant was again passed through six layers of gauze into a flask under C02 gas and stoppered.
Batch Culture Assay for the Degradation of Starch - Twenty-five ml of rumen fluid prepared as above was added to serum vials (Wheaton Glass, 100 ml capacity) containing 0.25-1.00% final concentration starch as an energy substrate in 25 ml batch culture assay buffer. The serum vials were sealed under C02 gas phase, and incubations were carried out for 20-24 hours at 39°C on a New Brunswick rotary shaker (250 rpm). Each experimental vial was done in triplicate. The corn starch used in degradation experiments was previously washed with distilled water several times, filtered through an 8 micron (47 mm) Millipore filter, and dried at 90°C for 24 hours.
At intervals of 0 and 24 hours, the entire contents in vials were centrifuged at 250 rpm for 5 minutes. The supernatants were carefully removed with a pipet and the remaining "starch pellets" resuspended in water and passed through borosilicate glass microfiber prefilters (Millipore AP 20-047-00). Filters were dried in an oven for 24 hours at 90°C, cooled and then weighed. The amount of starch remaining after 24 hours' incubation was compared with the amount present at 0 hours and the per cent of substrate degraded calculated.

[2] = tested on: rumen fluid batch culture; assay: Rumen fluid batch culture test: volatile fatty acid, gas (CH4 + H2), protein and amino acid accumulation (Example 2); format: cell-based, steers
Protocol: The above Formula IV composition was tested to determine its effectiveness as a feed additive for ruminants. The initial tests were in rumen fluid batch culture systems to determine the effect of the compound on volatile fatty acid/methane ratios (VFA/CH4). […] Test Procedure: A 50/50 mixture of ground corn and ground alfalfa was used as the substrate for the subject rumen fluid batch culture test. The compound (Formula IV ) was present in the rumen fluid in three separate test samples at 8.33, 25 and 75 ppm, respectively. On day 1, rumen fluid was obtained from mature fistulated steers on 50/50 concentrate/roughage diets. The rumen fluid (RF) was strained through three layers of gauze cloth and equilibrated with C02 gas. Wheaton serum vials (125 ml) were prepared ahead with 20 ml continuous batch buffer and 100 mg 50/50 ground corn/ground alfalfa. Controls and compounds (dissolved in acetone) were set up according to desired levels. The vials were kept under C02 gas until 20 ml of the strained RF was added. The vials were sealed and incubated at 39°C for 24 hours in a hot water bath. On successive days, gas samples (0.1 ml) were drawn for gas chromatography analysis before transferring 20 ml of the batch culture to another vial containing 20 ml of buffer, 100 mg substrate, and the corresponding compound. The remaining 20 ml was inoculated with 2 ml 6N HC1 and centrifuged at 15,000 rpm for 15 minutes. Ether extracts were prepared for volatile fatty acid (VFA) analysis. Some minor adjustments were made in the termperatures on the Hewlett-Packard 5750 Gas-Liquid Chromatograph used for VFA analysis when the glass column used was changed from 1/4 inch diameter to 1/8 inch diameter. Injection Port = 220°C Column Oven = 170°C Flame Detector = 250°C Only 4 minutes was needed to record the sample instead of the previous 7 minutes.

[3] = Chick rye diet test system (Example 6); format: in vivo; settings: compared to positive control (penicillin or bacitracin)
Excerpt: The Formula III compound can be tested in a chick rye diet test system. […] Useful antibiotics for the positive control comparison are penicillin or bacitracin.

[4] = 75 ppm, single runs of duplicate

For `CC[C@@]1([C@@H]2O[C@@H]([C@H]3O[C@@](O)(CO)[C@H](C)C[C@@H]3C)C[C@@H]2C)CC[C@H]([C@]2(C)CC[C@]3(C[C@H](O)[C@@H](C)[C@@H]([C@@H](C)[C@@H](OC)[C@H](C)C(=O)O)O3)O2)O1` [Monensin, reference compound], the Acetate [1] was 7.2 Mu Moles/ml and 5.6 Mu Moles/ml, the “Acetate, Mean” value [1] was 6.4 Mu Moles/ml and the Butyrate [1] was 7.8 Mu Moles/ml and 7.9 Mu Moles/ml. The “Butyrate, Mean” value [1] was 7.6 Mu Moles/ml, the “CH4 (%)” value [1] was 5.6% and 6.2% and the “CH4 (%), Average” value [1] was 5.8%. For the same molecule, the “CH4, Percent Change” value [1] was -49.4%, the “H2 (%)” value [1] was 0.0% and the “H2 (%), Average” value [1] was 0.0%. The Propionic [1] was 20.7 Mu Moles/ml and 18.7 Mu Moles/ml, the “Propionic, Mean” value [1] was 19.7 Mu Moles/ml and the Total [1] was 32.2 Mu Moles/ml. The “Total, Mean” value [1] was 38.8 Mu Moles/ml, the “effect on starch fermentation” value (rumen microflora) was “neither monensin or lasalocid had any effect” and the AA [2] was 0.51 µmol/mL and 0.28 µmol/mL and 0.29 µmol/mL and 0.34 µmol/mL and 0.30 µmol/mL and 0.44 µmol/mL. For the same molecule, the “CH4 produced on Day 10” value [2] was 49, the “Caloric Value of CH4” value [2] was 10.33 and the “Caloric Value of H2” value [2] was 0. The “Caloric Value of HAc” value [2] was 105.04, the “Caloric Value of HBu” value [2] was 50.34 and the “Caloric Value of HFo” value [2] was 0.98. For the same molecule, the “Caloric Value of HPr” value [2] was 180.46, the “Caloric Value of HiBu” value [2] was 5.11 and the “Caloric Value of HiVal” value [2] was 2.17. For the same molecule, the “Caloric Value, Total (VFA's)” value [2] was 344.10, the “Gross Cal Remaining in Feed” value [2] was 364.76 cal and the H2 [2] was 0 µ Moles. For the same molecule, the “H2 produced on Day 10” value [2] was 0, the “HAc (acetate) produced on Day 10” value [2] was 501.6 and the “HBu (butyrate) produced on Day 10” value [2] was 96.8. For the same molecule, the “HFo (formate) produced on Day 10” value [2] was 15.60, the “HPr (propionate) produced on Day 10” value [2] was 494.4 and the “HiBu (isobutyrate) produced on Day 10” value [2] was 14.0. For the same molecule, the “HiVal (isovalerate) produced on Day 10” value [2] was 3.2 and the “Total VFA's produced on Day 10” value [2] was 1,125.6.

For `CC[C@@H](C(=O)[C@@H](C)[C@@H](O)[C@H](C)CCc1ccc(C)c(O)c1C(=O)O)[C@H]1O[C@](CC)([C@H]2CC[C@](O)(CC)[C@H](C)O2)C[C@@H]1C` [lasalocid, reference compound], the “effect on starch fermentation” value (rumen microflora; 25 ppm) was “neither monensin or lasalocid had any effect”.

With “Pyridine, 2,2'-(2-imidazolidinyl- idene)di-, compound with CuCl2 (1/1) [Formula II Compound]” the acetate production ([1]; 75 ppm) was “depressed acetate production compared to the negative control, and was comparable to monensin”, the “CH4 (%), Average” value ([1]; 75 ppm, average) was 11.0% and the “H2 (%), Average” value ([1]; 75 ppm, average) was 0.0%. The “CH4, Percent Change” value ([1]; 75 ppm, change versus control average, 1440 min) was -6.0%, the “Acetate, Mean” value ([1]; 75 ppm, mean of duplicate) was 8.0 Mu Moles/ml and the “Butyrate, Mean” value ([1]; 75 ppm, mean of duplicate) was 9.6 Mu Moles/ml. The “Propionic, Mean” value ([1]; 75 ppm, mean of duplicate) was 14.8 Mu Moles/ml, the “Total, Mean” value ([1]; 75 ppm, mean of duplicate) was 32.4 Mu Moles/ml and the “CH4 (%)” value ([1]; 75 ppm, single runs) was 11.2% and 10.8%. For the same molecule, the “H2 (%)” value ([1]; 75 ppm, single runs) was 0.0%, the Acetate [1, 4] was 6.8 Mu Moles/ml and 9.2 Mu Moles/ml and the Butyrate [1, 4] was 8.9 Mu Moles/ml and 10.2 Mu Moles/ml. For the same molecule, the Propionic [1, 4] was 14.6 Mu Moles/ml and 15.0 Mu Moles/ml, the Total [1, 4] was 38.4 Mu Moles/ml and 34.4 Mu Moles/ml and the “activity in rumen fluid batch culture tests” value ([1]; compared with iron and nickel salts of Formula I) was “best activity”. The propionate production ([1]; expected in tests to establish optimum dosage level) was “favorable shift to increased propionate production” and the “activity in chick rye diet test” value [3] was “promising activity”.
